Molecular target: T1, AXL R499C (Homo sapiens, UniProt P30530, R499C)
T1 construct: purchased Thermo Fisher Scientific (Life Technologies) SelectScreen
Experiment: SelectScreen LanthaScreen
Type: binding
Details: read-out: % displacement
Outline: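 SelectScreen broad panel; activity (Z'LYTE, Adapta) plus binding formats. ATP: Km app for CSF1R Z'LYTE; 10 for CAMK1 Adapta. Readout = % per kinase.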

T1 sequence (P30530 26-894 R499C): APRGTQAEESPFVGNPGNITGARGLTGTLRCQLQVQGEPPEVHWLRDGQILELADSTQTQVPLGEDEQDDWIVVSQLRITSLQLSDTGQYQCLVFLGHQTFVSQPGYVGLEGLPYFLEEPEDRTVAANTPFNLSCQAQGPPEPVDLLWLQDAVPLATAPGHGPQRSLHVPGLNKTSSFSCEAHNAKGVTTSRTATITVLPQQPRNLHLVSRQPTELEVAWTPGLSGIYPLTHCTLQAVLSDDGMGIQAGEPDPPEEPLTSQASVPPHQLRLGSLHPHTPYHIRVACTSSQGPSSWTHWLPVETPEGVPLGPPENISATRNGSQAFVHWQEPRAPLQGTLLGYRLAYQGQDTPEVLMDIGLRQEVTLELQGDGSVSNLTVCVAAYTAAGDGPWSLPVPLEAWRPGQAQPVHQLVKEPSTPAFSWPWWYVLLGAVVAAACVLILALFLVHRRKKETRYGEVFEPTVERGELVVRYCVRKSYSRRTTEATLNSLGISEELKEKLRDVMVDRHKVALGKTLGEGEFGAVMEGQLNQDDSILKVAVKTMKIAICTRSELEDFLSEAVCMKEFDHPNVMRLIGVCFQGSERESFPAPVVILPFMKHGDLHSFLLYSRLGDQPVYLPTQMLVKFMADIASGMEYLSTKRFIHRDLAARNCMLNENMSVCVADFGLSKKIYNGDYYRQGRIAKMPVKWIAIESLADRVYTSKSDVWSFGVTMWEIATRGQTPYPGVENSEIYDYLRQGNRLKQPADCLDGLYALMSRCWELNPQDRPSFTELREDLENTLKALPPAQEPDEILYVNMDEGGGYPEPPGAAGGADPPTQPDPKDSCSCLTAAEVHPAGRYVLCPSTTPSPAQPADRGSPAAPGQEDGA

Question: For `CN(C(=O)CN1CCOCC1)c1ccc2sc3c(-c4cccc5c(=O)cc(N6CC7CCC(C6)O7)oc45)cccc3c2c1` [NU5455], which inhibition at 1 µM is on record?
Answer: Its inhibition at 1 µM is -2.7%.
